The text below walks through data of patent US20220033405A1, “PHARMACEUTICAL COMPOSITION FOR PREVENTING OR TREATING CANCER CONTAINING PLK1 INHIBITOR AS ACTIVE INGREDIENT” (NATIONAL CANCER CENTER, priority 2018, published 2022).

Broadly, the IC50 is the concentration needed to halve the response being measured. A lower IC50 goes with inhibition by little substance.

The subject of assay [1] is SNU449 human liver cancer cells. As to the kind of experiment: Reactivity of M2 variants in SNU449. Type of assay: cell-based. The method, then:
(§1) To examine the ability of the compound to inhibit the growth of the breast cancer cell line, the compounds was treated at each indicated μM concentration 1 and 3 days after cell attachment, and the control was treated with a 0.1% solvent (DMSO). After another two days, the cell lines that were attached to the culture plate and grew were rinsed with 1×PBS and treated with 4% paraformaldehyde at room temperature for 10 minutes to fix the cells. Then, after cells were rinsed twice with PBS, the fixed cells were treated with a 0.5% Triton X-100 solution and reacted at room temperature for 15 minutes, rinsed another three times with PBS, and then treated with a DAPI reagent at 0.5 μg/ml, and reacted at 37° C. for 10 minutes to stain the cell nuclei. After the cells were additionally rinsed once with PBS, cells stained with DAPI were photographed by Cytation 3, and the resulting images were analyzed with Gen5 software (Biotek, USA). Meanwhile, cells that grew in a floating manner without being attached to the culture plate were treated with a 4% paraformaldehyde solution, reacted at room temperature for 10 minutes to fix the cells, and then photographed in a bright field by Cytation3, and the resulting images were analyzed by Gen5 software (Biotek, USA).
(§2) To analyze the ability to inhibit the growth of liver cancer cell lines, 6.6×10^3 HepG2 cells per well, 1×10^3 cells of each of Hep3B, SNU-475, and SNU-449 per well, and 2×10^3 SNU-387 cells per well were aliquoted in a 96-well plate, cultured in the same manner as described above, treated with Compound 2 (M2), Compound 3 (M4), Compound 4 (M21), Compound 5 (M23), and Compound 6 (M25), and then the ability to inhibit the growth of cells was analyzed.

The subject of assay [2] is SNU-449. As to the kind of experiment: Cell cycle by flow cytometry, phospho-histone H3 (Ser10) staining. Type of assay: cell-based. To be noted: M2 20, 40, 80 μM, BI2536 20 nM. The protocol: Flow cytometry equipment was used to confirm the effect on the cell cycle in the case of treatment with Compound 2 (M2). SNU-449, which is one of the liver cancer cell lines, were treated with Compound 2 (M2) at each of concentrations of 20, 40, and 80 μM after 1 day and 3 days, and were harvested after another 2 days.
Furthermore, it was intended to more specifically stain a cell population that stopped in the metaphase of cell division using a phospho-histone H3 (Ser10) antibody capable of specifically staining only the cells that stopped in the metaphase of cell division. As a positive control, cells were treated with BI2536 known as a PLK1 kinase inhibitor at 20 nM and used to observe cells in the metaphase of cell division and an increase in the G2/M phase.

Assay [3] has as its system PLK1. As to the kind of experiment: PLK1 position in the cell (r-tubulin, PLK1, DAPI staining). In kind it is cell-based.
For assay [4], the system named is HepG2 orthotopic xenograft. The assay can be described thus: Liver cancer orthotopic xenograft model (HepG2), 19 injections. To be noted: M2 9.1 mg/kg, BI2536 1 mg/kg, 19 injections. Type of assay: in vivo, BalB/c nude mice. The protocol:
5×10^6 HepG2 cells, which are a hepatocellular carcinoma cell line, were injected into the back skin of BalB/c nude mice, and when a sufficient cancer tissue was formed about 3 weeks later, the tissue was removed, uniformly cut into 1 mm^3, and transplanted into the right median lobe of the liver by excising the abdomen within 1 cm.
The doses of 9.1 mg/kg of M2 and 1 mg/kg of BI2536 were selected based on the present inventor's previous in vitro experiments on HCC cells. Administration began 7 days after cell injection, and an equivalent amount of DMSO for the highest concentration of drug was used as a solvent control for each experiment. Each drug was injected a total of 19 injections based on 5 times/week.

The subject of assay [5] is HepG2 cells. The assay can be described thus: Cell viability after treatment (Hoechst 33342). In kind it is cell-based. To be noted: HepG2, various concentrations, two treatments 48 hours apart. The method, then:
HepG2 cells, a hepatocellular carcinoma cell line, were plated with 4 to 6 replications at each hit compound concentration in a 96-well microtiter plate supplemented with a culture medium. The hit compound dissolved in DMSO was added the next day according to the design of experiments, and the number of seeded cells was determined by the cell density reaching 80% on the final day of the protocol treated as a cell control. After 24 hours of cell seeding, cells were treated with hit compounds (M2 and BI2536) at various concentrations, and 48 hours after primary treatment, the medium was aspirated and then secondary treatment was performed. After 48 hours, cell nuclei were visualized by 2.5 μM Hoechst 33342 staining at 37° C. for 30 minutes, then the medium was aspirated and washed with a fresh medium. The plate was read using Cytation™ 3 (BioTek, USA), the cell viability was analyzed, and the results were presented as a relative percentage of viable cells after treatment with the hit compound compared to the control treatment.

Assay [6] deals with HepG2 cell. The assay can be described thus: Apoptosis by annexin V-FITC / PI flow cytometry. The conditions noted are these: HepG2, 3 days; M2 20 or 100 μM; BI2536 20 or 100 nM. Type of assay: cell-based. The protocol:
To analyze the pattern of apoptosis by exposure to M2, HepG2 cell, a hepatocellular carcinoma cell line, were treated with 20 or 100 μM M2 and 20 or 100 nM BI2536 for 3 days. The apoptosis was detected by annexin V-fluorescein isothiocyanate (annexin V-FITC) and propidium iodide (PI) staining of necrotic and apoptosis cells. First, cells were harvested and washed once with PBS. The cells were then resuspended in a 100 μl binding buffer containing 4 μl of Annexin V (BD, 51-65874X) and PI (BD, 51-66211E). The cells were stained at 37° C. for 15 minutes in the dark and then analyzed using FACSan (BD, San Jose, Calif.). Data was analyzed using CELLQuest software (BD).
On the technique in general: Flow cytometry measures light scatter and fluorescence of single cells or particles in a stream.

Assay [7] relates to HepG2 human liver cancer cells. As to the kind of experiment: Reactivity of M2 variants in HepG2. In kind it is cell-based. The protocol:
as §1, §2

Assay [8] deals with JIMT1 human breast cancer cells. The assay can be described thus: Cancer cell growth inhibition, M2 variants in JIMT1. Type of assay: cell-based. The protocol:
as §1

In assay [9] the target is T1, PBD domain of PLK1 (PLK1-PBD protein) (Homo sapiens, UniProt P53350).
T1 construct: a 4 μM PLK1-PBD protein
The assay can be described thus: Compound screening by fluorescence polarization (FP) competition assay. In kind it is binding. The conditions noted are these: FITC-labeled 1010pT peptide + PLK1-PBD; about 300 with no compound added. The method, then:
For this purpose, a fluorescence polarization competition assay was performed by mixing a conjugate of a PBD site of PLK1 purified in a solution and a peptide (FITC-labeled 1010pT (GVLSpTLI-NH2)) to which FITC fluorescence was bound with a low molecular weight compound to be screened.
More specifically, after a reaction was performed at room temperature for 30 minutes by preparing a 4 μM PLK1-PBD protein, a 10 nM peptide (FITC-labeled 1010pT (GVLSpTLI-NH2)), and a 20 μl candidate compound at each concentration and putting the respective components into a black 96-well plate for mixing, fluorescence polarization (mp) values were measured using Infinite F200 Pro (TECAN Group Ltd, Switzerland). An average value was derived by performing this experiment three times by the same method, and the excitation wavelength and the emission wavelength were set at 485 nm and 535 nm, respectively.
In general terms: In fluorescence polarisation assays a small probe gives low polarisation when free and higher when bound to something large.

Assay [10] addresses T2, PBD of PLK1 (GST-tagged target protein) (Homo sapiens, UniProt P53350).
T2 construct: made in house
The assay can be described thus: IC50 measurement by FP assay. To be noted: FITC-labeled 1010pT peptide. Type of assay: binding. The method, then:
The IC50 of the compound was intended to be analyzed by performing the FP assay shown in Example 1 on the compound and the hit compound discovered by the primary and secondary compound screening and various derivatives thereof. For this purpose, a target protein to which GST-tag was bound was isolated using a GST resin, and 15 mg/ml of the pure target protein to which GST-tag was bound was obtained by finally performing gel filtration. The target protein was diluted with a reaction buffer and prepared at each of concentrations of 12 uM, 3 uM, and 1.5 uM, and an FITC-bound peptide (FITC-labeled 1010pT (GVLS-pT-LI-NH2)) stored in a brown tube was diluted with a reaction buffer and prepared at a concentration of 30 nM. Further, the compound at a concentration of 100 mM was diluted with a reaction buffer and prepared at each of 160.0 uM, 80.0 uM, 40.0 uM, 20.0 uM, 10.0 uM, 5.0 uM, 2.5 uM, 1.25 uM, 0.625 uM, 0.3125 uM, 0.15625 uM, and 0.0 uM. […] When the reaction was completed, the fluorescence polarization value was measured using Infinite F200 Pro (TECAN Group Ltd, Switzerland) after setting the excitation wavelength and the emission wavelength to 485 nm and 535 nm, respectively, and setting the G-Factor to 1.077. […] Binding curves were analyzed using Graphpad Prism (GraphPad Software, San Diego, Calif., USA).

Assay [11] deals with MDA-MB-468 cells. As to the kind of experiment: Cancer cell growth inhibition (DAPI nuclei count), breast cancer line. In kind it is cell-based. To be noted: treated 1 and 3 days after attachment. The method, then: For this purpose, experiments were performed using liver cancer, breast cancer, hematologic cancer, cervical cancer, and prostate cancer cell lines, a murine liver cancer cell line HEPA 1-6 and a breast cancer cell line MDA-MB-468 were cultured in a DMEM medium supplemented with 10% fetal bovine serum (FBS) and 1% penicillin/streptomycin, the other cell lines were cultured in a RPMI1640 medium supplemented with the same additives, and the cell lines were used in the experiment.
To examine the ability of the compound to inhibit the growth of the breast cancer cell line, the compounds was treated at each indicated μM concentration 1 and 3 days after cell attachment, and the control was treated with a 0.1% solvent (DMSO). […] After the cells were additionally rinsed once with PBS, cells stained with DAPI were photographed by Cytation 3, and the resulting images were analyzed with Gen5 software (Biotek, USA). Meanwhile, cells that grew in a floating manner without being attached to the culture plate were treated with a 4% paraformaldehyde solution, reacted at room temperature for 10 minutes to fix the cells, and then photographed in a bright field by Cytation3, and the resulting images were analyzed by Gen5 software (Biotek, USA). […]

T2 sequence (P53350 367-603 limits assumed): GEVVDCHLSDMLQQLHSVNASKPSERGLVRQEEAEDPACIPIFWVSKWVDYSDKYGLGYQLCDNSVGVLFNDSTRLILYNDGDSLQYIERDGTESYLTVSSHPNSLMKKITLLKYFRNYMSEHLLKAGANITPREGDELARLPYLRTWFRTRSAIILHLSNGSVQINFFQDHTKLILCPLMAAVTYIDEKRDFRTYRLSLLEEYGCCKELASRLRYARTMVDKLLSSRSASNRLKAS
T1 sequence (P53350 367-603 limits assumed): as above

For the compound `Cc1cccc(OCCn2c3nc(=O)[nH]c(=O)c-3nc3cc(C(F)(F)F)ccc32)c1` [Compound 11, 10-[2-(3-methylphenoxy)ethyl]-7-(trifluoromethyl)-2H,3H,4H,10H-benzo[g]pteridine-2,4-dione], the “number of cancer cells” value in [1] is recorded as “a relatively remarkable cancer cell reduction effect did not appear”.
Turning to `CC[C@@H]1C(=O)N(C)c2cnc(Nc3ccc(C(=O)NC4CCN(C)CC4)cc3OC)nc2N1C1CCCC1` [BI2536, reference compound], the “proportion of polyploid cells” value in assay [2] is “remarkably increased”. Further, the “proportion of phospho-histone H3-positive cells” value in assay [2] (compared to CT) is “increase in the proportion”. The chromosome segregation result in assay [3] is “abnormal chromosome segregation was observed”. In assay [3] (middle stage of cell division), the “position of PLK1” value is “did not seem to make a relatively large difference” and the “r-tubulin located in the centrosome (staining / position)” value is “did not seem to make a relatively large difference”. Further, the “progression of the HCC xenograft calculated by the growth inhibition index” value in [4] was “suppressed the progression of the HCC xenograft”. The “growth of tumor cells (macroscopic morphology, MRI)” value in assay [4] (5 times/week) was “the growth of tumor cells was suppressed”. Also, in [5], the cell viability entry is recorded as “the relatively less the cell viability became”. Also, in assay [6], the apoptosis cells result is “apoptosis cells were increased” and the “apoptosis with increasing dose” value is given as “apoptosis was increased in a dose-dependent manner”.
As to `Cc1cc2nc3c(=O)[nH]c(=O)nc-3n(C)c2cc1C` [Compound 7, 7,8,10-trimethyl-2H,3H,4H,10H-benzo[g]pteridine-2,4-dione], the “areas of liver cancer cells” value in assay [7] was “remarkably reduced in a dose-dependent manner”. Moreover, the entries for the “number of cancer cells” value in assay [1] and in [8] were “the number of cancer cells was remarkably reduced in a dose-dependent manner” and “remarkably reduced the number of cancer cells in a dose-dependent manner”, respectively.
As to `Cc1cc2nc3c(=O)[nH]c(=O)nc-3n(CCC#N)c2cc1C` [Compound 10, 3-{7,8-dimethyl-2,4-dioxo-2H,3H,4H,10H-benzo[g]pteridin-10-yl}propanenitrile], the “number of cancer cells” value in assay [1] is “a relatively remarkable cancer cell reduction effect did not appear”.
Consider `Cc1cc2nc3c(=O)[nH]c(=O)nc-3n(C)c2cc1C=O` [Compound 8, 7,10-dimethyl-2,4-dioxo-2H,3H,4H,10H-benzo[g]pteridine-8-carbaldehyde], for which the “number of cancer cells” value is listed as “the number of cancer cells was remarkably reduced in a dose-dependent manner” in [1] and “remarkably reduced the number of cancer cells in a dose-dependent manner” in [8].
In the case of `O=C(O)c1ccc2[nH]c3nc(=O)[nH]c(=O)c-3nc2c1` [Compound 1, 2,4-Dioxo-1,2,3,4-tetrahydrobenzo[g]pteridine-7-carboxylic acid], in assay [9], the fluorescence polarization value is 180 mp. The compound further came in with an IC50 in [10] of roughly 25 µM.
On to `O=c1nc2[nH]c3cc(Cl)ccc3nc-2c(=O)[nH]1` [Compound 3, 8-chloro-1H,2H,3H,4H-benzo[g]pteridine-2,4-dione], for which, in assay [11], the number of cells entry was “the number of cells was remarkably reduced in proportion to the treatment concentration”.
As to `Cc1cc2nc3c(=O)[nH]c(=O)nc-3n(C[C@H](O)[C@H](O)[C@H](O)CO)c2cc1C` [Compound 12, 7,8-Dimethyl-10-[(2S,3S,4R)-2,3,4,5-tetrahydroxypentyl]benzo[g]pteridine-2,4-dione], in assay [7], the “areas of liver cancer cells” value was “relatively low reactivity appeared”. Moreover, in assay [1], the “number of cancer cells” value was “a relatively remarkable cancer cell reduction effect did not appear”.
